Data as given in patent publication US20100248365A1, “GANGLIOSIDE BIOSYNTHESIS MODULATORS” (ZACHARON PHARMACEUTICALS, INC., priority 2009, published 2010).

How the values were obtained:
Assay type in all cases: cell-based
[1] = test system: primary human fibroblasts from Sandhoff patients; assay: GM2 storage in gangliosidosis fibroblasts (Sandhoff), GSL analysis by HPLC; conditions: 30 uM, 13 days of treatment
Protocol: (§1) Human gangliosidosis fibroblast cells are obtained e.g., from Coriell Institute for Medical Research (http://ccr.coriell.org). The primary cells are cultured in minimum essential medium (MEM) with 15% fetal bovine serum (FBS) as instructed by the supplier.
(§2) The fibroblast cells are cultured in 6 well plates at a density of 5.0E05/well in MEM, 15% FBS. The cells are treated with compounds at 30 uM on the next day of culture. The non-selective glycolipid inhibitors PDMP and DGNJ, which inhibit glucosylceramide synthase, are used as control. All the treatments are performed in triplicate. The medium is changed every 5 days with fresh compounds added. After 13 days of treatment with compounds, the cells are harvested for GSL analysis. The conditioned medium is removed, the monolayer is washed with PBS and detached with 5 mM EDTA in PBS. An aliquot of the cell suspension is taken for cell viability count using Viacount.
The cells are spun down and the cell pellets are resuspended in water for GSL extraction. The cells are homogenized using a homogenizer at 6500 rpm for 30 seconds twice. Gangliosides are extracted from homogenates by using chloroform:methanol:water (4:8:3) followed by partitioning. The ganglioside containing upper phase is taken and dried down in a SpeedVac.
Purified total GSLs are subjected to endo-glucoceramidase (EGCase II, Sigma) treatment to release free glycans. ˜10 ug protein equivalent GSL is digested with 1 mU EGCaseII in 15 ul incubation buffer containing 50 mM sodium acetate, pH 5.5 and 0.4% TX100. Digestion is performed at 37° C. overnight. Released free glycans are tagged with anthranilic Acid (2-AA, Sigma). A labeling mix is prepared freshly in 4% sodium acetate (NaAc.3H2O) and 2% boric acid/methanol(w/v) by adding 45 mg NaBH3CN first and then adding 30 mg 2AA in a 1 ml solution. 40 ul of this labeling mix is added directly into digestion mix. The labeling is carried out at 80° C. for 45˜60 min. Free labeling reagents are removed by passing the reaction mix through a Discovery DPA-6S (Sigma) column. The DPA-6S column (50 mg) is pre-equilibrated twice with 1 ml acetonitrile (ACN). The reaction mixture is cooled down, 1 ml of 97% ACN is added, and the sample is loaded onto the column. The column is washed with four times with 1 ml of 99% ACN and once with 0.5 ml of 97% ACN. 2AA-glycans are eluted in two time 600 ul water. The eluates are dried down in a SpeedVac and subjected to HPLC analysis.
Purified 2-AA-labeled oligosaccharides are analyzed by HPLC an method as described by Neville et al. (Anal. Biochem, 2004, 331:275-282). 2-AA-oligosaccharides are separated by NP-HPLC using a 5 μm 4.6×250 mm TSK gel-Amide 80 column (Tosoh) on a Waters Alliance 2690 separation module equipped with a Waters 2475 fluorescence detector set at Exλ360 nm and Emλ425 nm. Solvent A is 80% ACN and 20% 100 mM ammonium acetate (AmAc), pH 3.85. Solvent B is 60% Milli-Q water, 20% ACN and 20% 100 mM AmAc, pH 3.85. The gradient profile is listed below. Glucose unites are determined based on a 2-AA-labeled glucose ladder (Ludger, UK).

NCI-H82 cells = assay: Ganglioside profiling of compound-treated NCI-H82 cells (GSL extraction, 2AA labeling, NP-HPLC); conditions: for preferential reduction effect on gangliosides GM3 and GD3: relative to other ganglioside species; for cellular inhibition of specific ganglioside biosynthesis: NCI-H82 cells, 25, 12 and 6 uM, 96 hours, HPLC peaks
Protocol: NCI-H82 cells were cultured in 6 well plates and treated with compounds at a concentration of 25, 12 and 6 uM in triplicates. PDMP (1-Phenyl-2-decanoylamino-3-morpholino-1-propanol, HCl, EMD #513100) at 25, 12, 6 uM and DGNJ (N-(n-Butyl) deoxygalactonojirimycin, EMD #203994) at 50 uM were used as controls. After 96 hours of compounds treatment the cells were harvested for ganglioside profiling. The suspension cells were centrifuged and the pellets washed once with PBS. Cells were resuspended in 1 ml of PBS, 1/100 of cells were taken to check the cell viability (Viacount)) and for glycosphingolipid (GSL) quantitation and normalization. 1/10 of cells were taken for CTB-FACS to check GM1 expression. The remaining cells were subjected to the ganglioside extraction procedure follow the protocol described by R. Schnaar (Methods in Enzymology, 230: 348-370, 1994).
Briefly, the cells were pelleted by centrifugation and resuspended in cold distilled-water. The cell suspension was homogenized with Polytron homogenizer. Glycolipids were extracted with chloroform:methanol:water at 4:8:3 ratio. Glycolipids were partitioned by adding 0.173 volume of water to extracted the supernatant. The upper […] phase (glycolipids) was dried in a vacuum centrifuge (SpeedVac).
Glycans were released from the glycolipids using the enzyme EGCase II (Sigma, Cat #E9030) as described by the manufacture. Released glycans were labeled with 2AA (2-Anthranilic acid, Sigma, Cat #A89804) following the procedures described by D. Neville (Analytical Biochemistry, 331 (2004) 275-282). Non-incorporated 2AA was removed by column chromatography (Discovery DPA-6S). Briefly, the extracted GSLs were digested with EGCase in a 10 ul reaction volume overnight. 40 ul of labeling mix (30 mg/ml 2-AA, 45 mg/ml […] in 4% NaAc and 2% boric acid in methano) were added. The reaction was carried at 80° C. for 45 min. 2AA-labeled glycans were purified by column chromatography (Discovery DPA-6S). The column was preequilibrated with 2×1 ml 97% acetonitrile (ACN) and the sample was loaded by adding 1 ml 97% ACN to the reaction mix. The column was washed 4× with 1 ml 97% ACN and the 2AA-labeled […] were eluted with 2×0.6 ml water. After drying down (SpeedVac), the sample were resuspended and analyzed by normal phase high performance liquid chromatography (NP-HPLC).
Purified 2AA-GSL glycans were separated on NP-HPLC using a 4.6×250 mm TSK Gel-Amide-80 column (Tosoh Bioscience). The chromatography system consisted of a Waters Alliance 2690/5 separation module and an in-line Waters 2475 fluorescence detector set at Exλ360 nm and Emλ425 nm. All chromatography was performed at 30° C. Solvent A was 20% 100 mM ammonium acetate pH3.85, 80% Acetonitrile, solvent B was 20% 100 mM ammonium acetate pH3.85, 20% ACN and 60% Milli-Q water. The gradient was run from 86% A to 54.7% A in 55 min at flow rate 0.8˜1.2 ml/min (Analytical Biochemistry, 331 (2004) 275-282). Chromatography data was processed using Waters Empower software. Glucose units were determined based on a 2AA-labeled glucose oligomer ladder (Ludger). All 2AA-GSL standards were prepared in house and labeled as glucose units.
FIGS. 18-25 illustrate the dose dependent effects on individual gangliosides (individual HPLC peaks) of various compounds as determined according to the methods of Example 5, but with additional and slightly altered concentration levels used for test compound dosing.

[2] = test system: primary human fibroblasts from Tay-Sachs patients; assay: GM2 storage in gangliosidosis fibroblasts (Tay-Sachs), GSL analysis by HPLC; conditions: 30 uM, 13 days of treatment
Protocol: as §1
as §2, with “Viacount. […]” for “Viacount.”
Purified 2-AA-labeled oligosaccharides are analyzed by HPLC an method as described by Neville et al. (Anal. Biochem, 2004, 331:275-282). 2-AA-oligosaccharides are separated by NP-HPLC using a 5 μm 4.6×250 mm TSK gel-Amide 80 column (Tosoh) on a Waters Alliance 2690 separation module equipped with a Waters 2475 fluorescence detector set at Exλ360 nm and Emλ425 nm. […] Glucose unites are determined based on a 2-AA-labeled glucose ladder (Ludger, UK).

[3] = NCI-H82 cells, HPLC peak area as % of untreated
[4] = NCI-H82 cells, HPLC peak areas as % of untreated

Compound: COc1cccc(-c2nc3c(C(C)(C)C)cc(C(C)(C)C)c(O)c3o2)c1OC [compound 20, 4,6-di-tert-butyl-2-(2,3-dimethoxyphenyl)benzo[d]oxazol-7-ol]
- reduction of GM2 storage in primary human fibroblasts from Sandhoff patients [1]: reduction

Compound: CC(C)CNc1oc(-c2cccs2)nc1C#N [compound 8, 5-(isobutylamino)-2-(thiophen-2-yl)oxazole-4-carbonitrile]
- preferential reduction effect on gangliosides GM3 and GD3 (NCI-H82 cells; NCI-H82 cells): preferential reduction
- reduction of GM2 storage in primary human fibroblasts from Sandhoff patients [1]: reduction

Compound: CCCCN1C[C@H](O)[C@@H](O)[C@@H](O)[C@H]1CO [DGNJ, N-(n-Butyl) deoxygalactonojirimycin, reference compound]
- reduction of GM2 storage in primary human fibroblasts from Sandhoff patients [1]: reduction

Compound: N#Cc1c(-n2ncnc2-c2ccc(F)cc2)sc2c1CCCCC2 [compound 4, 2-(5-(4-fluorophenyl)-1H-1,2,4-triazol-1-yl)-5,6,7,8-tetrahydro-4H-cyclohepta[b]thiophene-3-carbonitrile]
- dose dependent reduction effect on ganglioside GD3 (NCI-H82 cells; [3]): dose dependent reduction
- reduction in B series gangliosides relative to A series gangliosides (NCI-H82 cells; [4]): reduction

Compound: Cc1cc(OCC(=O)Nc2ccc(N(C)C)cc2)cc(C)c1Cl [compound 21, 2-(4-chloro-3,5-dimethylphenoxy)-N-(4-(dimethylamino)phenyl)acetamide]
- reduction of GM2 storage in primary human fibroblasts from Tay-Sachs patients [2]: reduction

Compound: COc1cc(/C=C/c2ccc3cccc(OCc4ccccc4)c3n2)cc([N+](=O)[O-])c1OC(C)=O [compound 15, (E)-4-(2-(8-(benzyloxy)quinolin-2-yl)vinyl)-2-methoxy-6-nitrophenyl acetate]
- cellular inhibition of specific ganglioside biosynthesis (NCI-H82 cells): inhibition

Compound: COc1ccc(/C(C)=N/Nc2nc3ccccc3nc2C)cc1OC [compound 19, (E)-2-(2-(1-(3,4-dimethoxyphenyl)ethylidene)hydrazinyl)-3-methylquinoxaline]
- dose dependent reduction effect on ganglioside GM1 (NCI-H82 cells; [3]): dose dependent reduction
- reduction of GM2 storage in primary human fibroblasts from Sandhoff patients [1]: reduction

Compound: CSc1ccc(-c2ncnn2-c2sc3c(c2C#N)CCCCC3)cc1 [compound 3, 2-(5-(4-(methylthio)phenyl)-1H-1,2,4-triazol-1-yl)-5,6,7,8-tetrahydro-4H-cyclohepta[b]thiophene-3-carbonitrile]
- preferential reduction effect on gangliosides GM3 and GD3 (NCI-H82 cells; NCI-H82 cells): preferential reduction
- reduction of GM2 storage in primary human fibroblasts from Sandhoff patients [1]: reduction

Compound: CCCCCCCCCC(=O)NC(CN1CCOCC1)C(O)c1ccccc1 (stereo not drawn) [PDMP, 1-Phenyl-2-decanoylamino-3-morpholino-1-propanol, reference compound]
- cellular inhibition of specific ganglioside biosynthesis (NCI-H82 cells): inhibition
- reduction of GM2 storage in primary human fibroblasts from Sandhoff patients [1]: reduction

Compound: CN(C)c1ccc(-c2nc3c(C(C)(C)C)cc(C(C)(C)C)c(O)c3o2)cc1 [compound 2, 4,6-di-tert-butyl-2-(4-(dimethylamino)phenyl)benzo[d]oxazol-7-ol]
- cellular inhibition of specific ganglioside biosynthesis (NCI-H82 cells): inhibition
- dose dependent reduction effect on ganglioside GD1b (NCI-H82 cells; [3]): dose dependent reduction

Compound: CC1=C(C(=O)Nc2ccccc2)C(c2ccccc2)C(C#N)=C(SCC(=O)NCc2ccccc2)N1 (stereo not drawn) [compound 7, 6-(2-(benzylamino)-2-oxoethylthio)-5-cyano-2-methyl-N,4-diphenyl-1,4-dihydropyridine-3-carboxamide]
- reduction of GM2 storage in primary human fibroblasts from Sandhoff patients [1]: reduction

Compound: CC(C)(C)C1=CC(=Nc2ccc(Br)cc2)C=C(C(C)(C)C)C1=O [compound 18, 4-(4-bromophenylimino)-2,6-di-tert-butylcyclohexa-2,5-dienone]
- dose dependent reduction effect on ganglioside GM2 (NCI-H82 cells; [3]): dose dependent reduction

Compound: Cc1ccc(C=NN2CCN(c3ccc(Cl)cc3)CC2)o1 [compound 17, 4-(4-chlorophenyl)-N-((5-methylfuran-2-yl)methylene)piperazin-1-amine]
- cellular inhibition of specific ganglioside biosynthesis (NCI-H82 cells): inhibition
- dose dependent reduction effect on ganglioside GM3 (NCI-H82 cells; [3]): dose dependent reduction
- reduction of GM2 storage in primary human fibroblasts from Sandhoff patients [1]: reduction

Compound: CC(C)(C)c1cc(C(C)(C)C)c2nc(-c3cc(Br)ccc3O)oc2c1O [compound 5, 2-(5-bromo-2-hydroxyphenyl)-4,6-di-tert-butylbenzo[d]oxazol-7-ol]
- dose dependent reduction effect on ganglioside GD2 (NCI-H82 cells; [3]): dose dependent reduction
- preferential reduction effect on 2 series gangliosides GM2 and GD2 relative to the 3 series gangliosides GM3 and GD3 (NCI-H82 cells; [4]): preferential reduction
- reduction of GM2 storage in primary human fibroblasts from Sandhoff patients [1]: reduction
